# Laboratory results taken from patent US9012611B2, “Use of 3,8,12,14, 17,20-oxo-substituted pregnene glycosides in the preparation of healthcare products, food additives and pharmaceuticals for the inhibition of appetite” (Institute of Materia Medica, Chinese Academy of Sciences, priority 2010, dated 2015).
# Key:
# female Wistar rat = test: Animal test in vivo: average food consumption (appetite inhibition); details: for Average food consumptions: Table 4, positive control 15 mg/kg, wilfosides 50 mg/kg; for average food consumptions compared with the blank control group (in words): during the administration of the drugs, crude extract 300 mg/kg, pure glycosides 50 mg/kg
# Description: (§1) 6-7 weeks-old female Wistar rat (purchased from Shanghai Laboratory Animal Center of Chinese Academy of Sciences)(weight: 110-150 g) was raised alone in suspended metal cage. After the experimental rat was obtained, it was checked to make sure whether they were abnormal or had obvious disease signs. The rat can freely obtain the drinking-water and feed for rodent (RM1(E)AQC). The feeding cage was controlled to receive 12 h illumination (from 07:00 to 19:00) and to be in a dark environment for 12 h, and the room temperature and relative humidity were controlled to be 21±3° C. and 55±15% respectively and not to deviate the upper and lower limit. The rats were randomly divided into groups depending on the body weight according to random number table to make the average weight in each group are approximately equal. Before the test, the rats were pre-trained suitably for one week (from −7th day to −1st day) during which the consumptions of feed and drinking water were recorded.
# (§2) Each group of drug to be tested, positive control group, and blank control group consisted of 5 rats, respectively. The tested drug and positive control drug were mixed with wheaten starch before the administration and formulated to suspension with required doses according to 10 mL/kg of administration volume. The positive control drug was sibutramine hydrochloride and the administration dosage was 15 mg/kg body weight. In the blank control group, only equal amount of starch was used to formulate suspension for administration by […] in a same volume. The administration time is the 1st day, 2nd day and 3rd day. The body weight of the rat, the consumption of the feed (the weight of the feeding hopper) and consumption of the drinking water (bottle weight) were recorded from the −7th day to the 7th day.
# [1] = Animal test in vivo: average body weight; design: species or system rat; details: for Average body weight: Table 6, positive control 15 mg/kg, wilfosides 50 mg/kg; for body weight compared with the blank control group (in words): during the administration of the drugs, crude extract 300 mg/kg, pure glycosides 50 mg/kg
# Description: as §1, §2
# [2] = 4th day (after administration on days 1-3)
# [3] = 5th day (after administration on days 1-3)
# [4] = 6th day (after administration on days 1-3)
# [5] = 7th day (after administration on days 1-3)
# [6] = −1st day (before administration)
# [7] = −2nd day (before administration)
# [8] = −3rd day (before administration)
# [9] = −4th day (before administration)
# [10] = −5th day (before administration)
# [11] = −6th day (before administration)
# [12] = −7th day (before administration)
compound,measurement,setting,value
"CO[C@H]1C[C@H](O[C@H]2[C@@H](OC)C[C@H](O[C@H]3CC[C@@]4(C)C(=CC[C@]5(O)[C@@H]4C[C@@H](OC(=O)/C=C(\C)C(C)C)[C@@]4(C)[C@]5(O)CC[C@@]4(O)C(C)=O)C3)O[C@@H]2C)O[C@@H](C)[C@H]1O[C@H]1C[C@H](OC)[C@H](O[C@H]2C[C@@H](OC)[C@@H](O)[C@H](C)O2)[C@@H](C)O1 [Wilfoside C1N, wilfoside C1N]",Average food consumptions,female Wistar rat; 1st day (administration day),11.6 g
same,Average food consumptions,female Wistar rat; 2nd day (administration day),8.8 g
same,Average food consumptions,female Wistar rat; 3rd day (administration day),3.6 g
same,Average food consumptions,female Wistar rat; [2],11.6 g
same,Average food consumptions,female Wistar rat; [3],15.6 g
same,Average food consumptions,female Wistar rat; [4],13.6 g
same,Average food consumptions,female Wistar rat; [5],15.6 g
same,average food consumptions compared with the blank control group (in words),female Wistar rat,greatly different from those in the blank group
same,Average food consumptions,female Wistar rat; [6],13.6 g
same,Average food consumptions,female Wistar rat; [7],14 g
same,Average food consumptions,female Wistar rat; [8],13.2 g
same,Average food consumptions,female Wistar rat; [9],13.2 g
same,Average food consumptions,female Wistar rat; [10],14.8 g
same,Average food consumptions,female Wistar rat; [11],10.8 g
same,Average food consumptions,female Wistar rat; [12],8.4 g
same,Average body weight,[1]; 1st day (administration day),152 g
same,Average body weight,[1]; 2nd day (administration day),146.8 g
same,Average body weight,[1]; 3rd day (administration day),141.6 g
same,Average body weight,[1]; [2],149.2 g
same,Average body weight,[1]; [3],154 g
same,Average body weight,[1]; [4],155.2 g
same,Average body weight,[1]; [5],157.2 g
same,body weight compared with the blank control group (in words),[1],no great differences
same,Average body weight,[1]; [6],154 g
same,Average body weight,[1]; [7],151.4 g
same,Average body weight,[1]; [8],148.4 g
same,Average body weight,[1]; [9],146.8 g
same,Average body weight,[1]; [10],144.4 g
same,Average body weight,[1]; [11],142 g
same,Average body weight,[1]; [12],140.6 g
"CO[C@H]1C[C@H](O[C@H]2[C@@H](OC)C[C@H](O[C@H]3CC[C@@]4(C)C(=CC[C@]5(O)[C@@H]4C[C@@H](OC(=O)/C=C/c4ccccc4)[C@@]4(C)[C@]5(O)CC[C@@]4(O)C(C)=O)C3)O[C@@H]2C)O[C@@H](C)[C@H]1O[C@H]1C[C@H](OC)[C@H](O[C@H]2C[C@@H](OC)[C@@H](O)[C@H](C)O2)[C@@H](C)O1 [Wilfoside K1N, wilfoside K1N]",Average food consumptions,female Wistar rat; 1st day (administration day),2.8 g
same,Average food consumptions,female Wistar rat; 2nd day (administration day),6.4 g
same,Average food consumptions,female Wistar rat; 3rd day (administration day),2.8 g
same,Average food consumptions,female Wistar rat; [2],8.4 g
same,Average food consumptions,female Wistar rat; [3],9.2 g
same,Average food consumptions,female Wistar rat; [4],13.6 g
same,Average food consumptions,female Wistar rat; [5],14.8 g
same,average food consumptions compared with the blank control group (in words),female Wistar rat,greatly different from those in the blank group
same,Average food consumptions,female Wistar rat; [6],13.2 g
same,Average food consumptions,female Wistar rat; [7],13.6 g
same,Average food consumptions,female Wistar rat; [8],13.2 g
same,Average food consumptions,female Wistar rat; [9],14.4 g
same,Average food consumptions,female Wistar rat; [10],14.8 g
same,Average food consumptions,female Wistar rat; [11],10.8 g
same,Average food consumptions,female Wistar rat; [12],7.6 g
same,Average body weight,[1]; 1st day (administration day),136.4 g
same,Average body weight,[1]; 2nd day (administration day),134.4 g
same,Average body weight,[1]; 3rd day (administration day),130.4 g
same,Average body weight,[1]; [2],134.2 g
same,Average body weight,[1]; [3],136.8 g
same,Average body weight,[1]; [4],139.2 g
same,Average body weight,[1]; [5],144 g
same,body weight compared with the blank control group (in words),[1],greatly different from those in the blank group
same,Average body weight,[1]; [6],148.8 g
same,Average body weight,[1]; [7],146.4 g
same,Average body weight,[1]; [8],143.6 g
same,Average body weight,[1]; [9],141.6 g
same,Average body weight,[1]; [10],140 g
same,Average body weight,[1]; [11],137.6 g
same,Average body weight,[1]; [12],134.8 g
